The source of these data is patent US11149028B2, “Methods for treating melanoma using small molecules” (NOVA SOUTHEASTERN UNIVERSITY, priority 2016, dated 2021).

Entries after “also recorded” stand apart in the source; their conditions may differ. Some results are limits rather than exact numbers.

One series has as its system HSP90. As to conditions: human, in vivo; cited from earlier work.
Series [1] deals with cleaved lamin A/C in WM266-4 cells. The series is described as follows: Western blotting for lamin A/C cleavage. In kind it is cell-based, human. As to the method:
(§1) 1×10^6 of WM266-4 or M14 cells were seeded in 3 mL of E-MEM or RPMI-1640 medium supplemented with 10% FBS and 1% penicillin/streptomycin in 6 cm plates. […] After washing with TBST, the membranes were treated with chemilumiscent horseradish peroxidase detection reagent (Thermo Scientific, Cat #32209) and exposed to autoradiography film (Denville Scientific, Inc., Metuchen, N.J., USA, cat #E3018). ImageJ software (NIH, Bethesda, Md.) was used to quantify the intensity of proteins bands. The protein bands were normalized against loading controls.
For orientation: Immunoblotting shows a protein as a band on a membrane.

Series [2] deals with WM266-4 cells. Kind of series: Cell staining for autophagy (autophagosome dye). In kind it is cell-based, human. As to conditions: dansylated analog, 25 μM. The protocol: WM266-4 cells were seeded at 10,000 cells/well in 0.1 mL of E-MEM medium supplemented with 10% FBS and 1% penicillin/streptomycin in 96 well plates (Greiner Bio-One CellStar cat #655180) and allowed to adhere overnight. After overnight incubation 100 μM 2155-14, 2155-18, 50 nM hnRNPH2 siRNA or 25 μM 2476-67.2 were added and incubated for various length of time. Cells were rinsed with warm PBS and stained with CYTO-ID® 1.0 Autophagy reagent (Enzo ENZ-51031-0050) and counterstained with DAPI. Cells were imaged using Cytation 5 imager (Biotek Inc, Winooski, Vt.) using GFP and DAPI filter sets. For % autophagic cells calculations cell counts were conducted using DAPI-stained nuclei and Object Sum Area value was obtained from at least 1,000 cells/well using DAPI channels. To obtain number of cells undergoing autophagy the cell count was conducted using GFP channel. Both GFP and DAPI cell counts were conducted using optimized algorithm in automatic mode. 8 replicate wells were used. % autophagic cells was calculated using Equation 1:% autophagic cells=100%*(number of cells, GFP channenumber of cells, DAPI channel)
To calculate staining intensity, the Object Sum Area value from GFP channel was obtained and divided by number of cells using DAPI channel. Both GFP and DAPI cell counts were conducted using optimized algorithm in automatic mode. 3 replicate wells were used.

In series [3] the test system is WM266-4 cells. Kind of series: Cell staining with dansylated derivatives of 2155-14. As to conditions: 100 μM. It is filed as cell-based, human. As to the method:
WM266-4 cells were seeded at 10,000 cells/well in 0.1 mL of E-MEM medium supplemented with 10% FBS and 1% penicillin/streptomycin in 96 well plates (Greiner Bio-One CellStar cat #655180) and allowed to adhere overnight. After overnight incubation cells were stained with 100 μM of fluorescent analogs of 2155-14 for various length of time, and rinsed with warm PBS. Cells were imaged using Cytation 5 imager (Biotek Inc, Winooski, Vt.) using custom filter set: λexcitation=377/50 and λemission=542/27 nm.

Series [4] deals with LC3-II and beclin-1 in WM266-4 cells. Kind of series: Western blotting for LC3 and beclin-1, WM266-4. In kind it is cell-based, human. The protocol:
as §1, with “controls (β-actin) and expressed as a fold of an untreated control.” for “controls.”

A further series deals with hnRNP A2/B1. Kind of series: Pull-down with biotinylated analogs, western blot. The following applies: WM266-4 lysates. It is filed as binding, human. As to the method: (§2) WM-266-4 and M14 cells were sonicated in RIPA lysis buffer containing added protease inhibitors. Affinity beads were prepared by addition of the 0.3 mg biotinylated probes to the 50 μL of streptavidin agarose resin, which was washed three times with the lysis buffer. Following incubation at 4° C. for 1 h, the obtained affinity beads complexed with biotinylated compounds were washed three times with lysis buffer to remove any unbound materials. The cell lysates (1 mg protein content) were then added to the probe-bound beads, and samples were incubated at 4° C. for 1 h and overnight on a rotator. Following 5 washes with lysis buffer, the samples were subjected to SDS-PAGE. The gels were stained overnight with colloidal blue (Invitrogen). Gel bands of interest were excised, reduced, carbidomethylated, dehydrated, and digested with Trypsin Gold (Promega) as per manufacturers' instructions. Following digestion, peptides were extracted, all fractions were combined, and the volume was reduced in a SpeedVac to near dryness, and re-suspended to 20 μL using 95% ddH2O/5% ACN/0.1% formic acid (FA) prior to analysis by 1D reversed-phase LC-nESI-MS2 (as outlined below) (Ludwig, M. R. et al. Surveying the serologic proteome in a tissue-specific kras(G12D) knockin mouse model of pancreatic cancer. Proteomics 16, 516-531, doi:10.1002/pmic.201500133 2016).
(§3) WM-266-4 cells were sonicated in RIPA lysis buffer containing protease inhibitors. Affinity beads were prepared by addition of the biotinylated probes (0.3 mg) to the streptavidin agarose resin (50 μL), which was first washed three times with the lysis buffer. […] The protein extract (1 mg) was then added to the probe-bound beads, and samples were incubated at 4° C. overnight. Following 5 washes with lysis buffer, the protein isolates were subjected to SDS-PAGE followed by transfer to nitrocellulose membrane. hnRNP H2 was detected using rabbit polyclonal antibody (Abgent #: AP13497b; 1:3,000, in 2% milk overnight), DDX1 monoclonal antibody (Santa Cruz #sc-271393, 1:1,000 in 2% BSA overnight), or hnRNP B1/A2 monoclonal antibody (Santa Cruz #SC-32316, 1:1,000 in 2% BSA overnight). After washing with TBST, the membranes were treated with chemilumiscent horseradish peroxidase detection reagent (Thermo Scientific, Cat #32209) and exposed to autoradiography film (Denville Scientific, Inc., Metuchen, N.J., USA, cat #E3018). ImageJ software (NIH, Bethesda, Md.) was used to quantify the intensity of proteins bands. The protein bands were normalized against loading controls.

The next series deals with hnRNP H2. The series is described as follows: Pull-down with biotinylated analogs, western blot. In kind it is binding, human. The following applies: WM266-4 lysates. The protocol: as §2, §3
The test system of series [5] is WM266-4 cells. The series is described as follows: CellTiter-Glo cell viability assay, WM266-4 (including rescue assays). In kind it is cell-based, human. The protocol:
(§4) Cells were plated in 384-well plates in 8 μL of media. Test compounds and dabrafenib (pharmacological assay control) were prepared as 10-point, 1:3 serial dilutions starting at 300 μM, then added to the cells (4 μL per well) using the Biomek Plates were incubated for 72 h at 37° C., 5% CO2 and 95% relative humidity. After incubation, 4 μL of CellTiter-Glo® (Promega cat #: G7570) were added to each well, and incubated for 15 min at room temperature. Luminescence was recorded using a Biotek Synergy H4 multimode microplate reader. Viability was expressed as a percentage relative to wells containing media only (0%) and wells containing cells treated with DMSO only (100%). Three parameters were calculated on a per-plate basis: (a) the signal-to-background ratio (SB); (b) the coefficient for variation [CV; CV=(standard deviation/mean)×100)] for all compound test wells; and (c) the Z′-factor (18). The IC50 value of the pharmacological control (dabrafenib, LC Laboratories #G-4408) was also calculated to ascertain the assay robustness. In case of viability rescue assays, cells were pre-treated with caspase, calpain, and autophagy inhibitors for 1-3 h before addition of test compounds. Time course viability assay was done with luminescence measurements performed at 4, 24, 48, and 72 h.
For orientation: ATP-based viability assays read luminescence as a measure of living cells.

A further series relates to calpain in WM266-4 cells. The series is described as follows: Calpain activity assay (Calpain-Glo). It is filed as cell-based, human. The following applies: 25 μM inhibitor, 100 μM 2155-14. As to the method: The Calpain-Glo Protease Assay (Promega cat #) was used to measure the calpain enzyme activity in live cells, according to the manufacturer's instructions. 1,250 of WM-266-4 cells were plated in 384-well white TC-treated plates in 5 μL of serum-free EMEM media. The cells were incubated overnight at 37° C., 5% CO2 and 95% relative humidity and 5 μL of test compounds 2155-14, (100 μM), calpain inhibitor III and PD151746 (25 μM) were added alone or in combination and incubated at 37° C., 5% CO2, and 95% relative humidity for 0.5, 4, and 24 h. After incubation, 10 μL, of a freshly prepared dilution of the Calpain-Glo Reagent stock solution (consisting of Suc-LLVY-Glo™ substrate, Calpain-Glo™ buffer, Luciferin Detection Reagent, and CaCl2) was added to cells at above mentioned times and luminescence was recorded with a Neo 2 microplate reader (Biotek Inc). All experiments were performed in triplicate and the values provided are the calculated average of at least three independent experiments.

The subject of series [6] is mouse embryonic fibroblasts (MEF). Kind of series: Viability of mouse embryonic fibroblasts. In kind it is cell-based. The protocol:
as §4

On to `C=CCNC1=C2C[C@@H](C)C[C@H](OC)[C@H](O)[C@@H](C)/C=C(\C)[C@H](OC(N)=O)[C@@H](OC)/C=C\C=C(/C)C(=O)NC(=CC1=O)C2=O` [Compound 17-AAG], for which, in the series with HSP90, the “clinical outcome in patients carrying BRAF or NRAS mutation” value is listed as “melanoma stabilization”.

Take `CN(C)c1cccc2c(S(=O)(=O)NCCN3C(=O)C(=O)N([C@H](CC4CCCCC4)CN4CCC[C@H]4CN4C(=O)C(=O)NC[C@@H]4Cc4ccccc4)C[C@@H]3Cc3ccc(O)cc3)cccc12` [Compound 2476-67.2, N-(2-((S)-4-((R)-1-((S)-2-(((S)-6-benzyl-2,3-dioxopiperazin-1-yl)methyl)pyrrolidin-1-yl)-3-cyclohexylpropan-2-yl)-6-(4-hydroxybenzyl)-2,3-dioxopiperazin-1-yl)ethyl)-5-(dimethylamino)naphthalene-1-sulfonamide]: the “lamin A/C cleavage” value in [1] (2.5 μM, 24 hr) was “no cleavage of lamin A/C”. Also, the “lamin A/C western blot” value in series [1] (5 μM, 24 hr) is reported as “striking increase of cleaved lamin A/C”. Besides, in the series on WM266-4 cells [2], the “autophagosome dye staining” value was “intensive green staining”. Also, the “staining of cytoplasm” value in the series on WM266-4 cells [3] is “Diffuse staining of the cytoplasm”. For the same compound, in the series with WM266-4 cells [3] (1 h up to 48 h), the “staining of nuclear envelope” value is “stains nuclear membrane in both WM266-4 and M14 cells”. In series [4] (2.5 μM, 24 hr), the “LC3-II level” value is “no cleavage of lamin A/C or increase of levels of LC3-II was detected”. The “LC3 western blot” value in series [4] (5 μM, 24 hr) was “neither of LC3 isoforms nor actin were detected”.

Consider `O=C(CCCC[C@@H]1SC[C@@H]2NC(=O)N[C@@H]21)NCCCC[C@H]1CNC(=O)C(=O)N1C[C@@H]1CCCN1C[C@@H](CC1CCCCC1)N1C[C@H](Cc2ccc(O)cc2)N(CCc2ccccc2)C(=O)C1=O` [Compound 2529-3, N-(4-((S)-1-(((S)-1-((R)-3-cyclohexyl-2-((S)-5-(4-hydroxybenzyl)-2,3-dioxo-4-phenethylpiperazin-1-yl)propyl)pyrrolidin-2-yl)methyl)-5,6-dioxopiperazin-2-yl)butyl)-5-((3aS,4S,6aR)-2-oxohexahydro-1H-thieno[3,4-d]imidazol-4-yl)pentanamide], for which the “hnRNP A2/B1 in pulldown, western blot” value in the series on hnRNP A2/B1 was “no bands were found”. The “hnRNP H2 in pulldown, western blot” value with hnRNP H2 is recorded as “two bands; also recorded: much less abundant”. The “cleaved lamin A/C level” value in [1] (100 μM, 24 h) is on record as “did not significantly increase; also recorded: had no effect on cleavage of lamin A/C”. Moreover, the IC50 in the series with WM266-4 cells [5] (Homo sapiens, WM 266-4, 72 h, 72 h) was more than 100 µM. The cytotoxicity at 100 µM with WM266-4 cells [5] (Homo sapiens, WM 266-4, 100 μM, 72 h, read-out: maximal inhibition of cell viability) is 42%. In addition, the “LC3-II level” value in series [4] (100 μM, 24 h) was “did not significantly increase”.

For `O=C(O)/C(S)=C/c1c[nH]c2ccc(F)cc12` [PD151746, reference compound], the “cell viability restored in presence of 2155-14” value in the series with WM266-4 cells [5] (24 h, 25 μM inhibitor, 100 μM 2155-14) is recorded as approximately 75%; in the series on WM266-4 cells [5] (48 h, 25 μM inhibitor, 100 μM 2155-14), approximately 50%. Besides, in the series with WM266-4 cells [5] (72 h, 25 μM inhibitor, 100 μM 2155-14), the “cell viability in presence of 2155-14” value is “all cells were dead”. Further, in the series with calpain in WM266-4 cells, the “calpain activity induced by 2155-14 after calpain inhibitor pre-treatment” value is “shut down calpain activity induced by 2155-14 at 30 min and 4 h but not at 24 h”.

As for `CCCS(=O)(=O)Nc1ccc(F)c(C(=O)c2c[nH]c3ncc(-c4ccc(Cl)cc4)cc23)c1F` [vemurafenib, reference compound], in [6], the “toxicity to mouse embryonic fibroblasts” value is on record as “toxic”.

MDL-28170 [reference compound]: the “viability, combination with 2155-14” value in the series on WM266-4 cells [5] (25 μM inhibitor, 100 μM 2155-14) is “even more pronounced negative effect on viability of cells than either compound alone”. Also, the “calpain activity induced by 2155-14 after calpain inhibitor pre-treatment” value in the series on calpain in WM266-4 cells was “shut down calpain activity induced by 2155-14 at 30 min and 4 h but not at 24 h”.

Usually IC50 stands for the concentration needed to halve the response being measured.
